From ChEMBL document CHEMBL5233209, “A concise review of recent advances in anti-heart failure targets and its small molecules inhibitors in recent years” (Eur J Med Chem, 2020)

Experiments:
[1] = target: cGMP-specific 3',5'-cyclic phosphodiesterase (Homo sapiens, UniProt O76074); assay: Inhibition of PDE-5A (unknown origin)
[2] = Half life in human; format: ADME
[3] = Tmax in human plasma; format: ADME, cell-free
Neprilysin = Neprilysin (Homo sapiens, UniProt P08473); assay: Inhibition of neutral endopeptidase (unknown origin)
Chain of Neprilysin (P08473 whole entry): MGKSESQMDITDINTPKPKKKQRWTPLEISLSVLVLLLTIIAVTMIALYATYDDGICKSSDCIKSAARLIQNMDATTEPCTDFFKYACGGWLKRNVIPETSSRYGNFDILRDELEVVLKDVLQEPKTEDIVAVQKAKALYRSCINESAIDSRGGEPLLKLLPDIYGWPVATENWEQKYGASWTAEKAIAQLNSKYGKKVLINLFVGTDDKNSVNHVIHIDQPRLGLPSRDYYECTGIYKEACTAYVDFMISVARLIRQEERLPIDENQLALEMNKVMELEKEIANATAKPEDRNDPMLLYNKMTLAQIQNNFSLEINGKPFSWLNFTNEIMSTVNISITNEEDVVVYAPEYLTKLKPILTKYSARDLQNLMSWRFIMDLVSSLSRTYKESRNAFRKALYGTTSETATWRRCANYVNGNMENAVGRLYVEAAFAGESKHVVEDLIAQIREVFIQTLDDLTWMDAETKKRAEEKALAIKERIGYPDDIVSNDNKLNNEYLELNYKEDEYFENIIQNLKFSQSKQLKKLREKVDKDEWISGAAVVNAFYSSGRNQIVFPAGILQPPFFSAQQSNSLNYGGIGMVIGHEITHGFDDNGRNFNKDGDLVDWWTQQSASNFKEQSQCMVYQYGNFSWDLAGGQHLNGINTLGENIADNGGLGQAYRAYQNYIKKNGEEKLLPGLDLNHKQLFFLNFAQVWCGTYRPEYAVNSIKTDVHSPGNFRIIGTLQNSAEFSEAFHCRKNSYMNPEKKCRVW

SMILES | IC50 [1] | half-life [2] | Tmax [3] | further results
CC(C)=CCc1c(O)c2c(c3c1OC(C)(C)C=C3)CC=C(c1ccc3c(c1)OCCO3)C2=O | 2.67 µmol |  |  | 
C[C@H](C[C@@H](Cc1ccc(-c2ccccc2)cc1)NC(=O)CCC(=O)O)C(=O)O [LBQ-657] |  | 21 h |  | 
CCCCC(=O)N(Cc1ccc(-c2ccccc2-c2nnn[nH]2)cc1)[C@H](C(=O)O)C(C)C |  | 12 h | 1.6 h | 
CCCCC(=O)N(Cc1ccc(-c2ccccc2-c2nnn[n-]2)cc1)[C@H](C(=O)[O-])C(C)C.CCOC(=O)[C@H](C)C[C@@H](Cc1ccc(-c2ccccc2)cc1)NC(=O)CCC(=O)[O-].O.O.[Na+].[Na+].[Na+] |  |  |  | IC50 (Neprilysin): 5 nM
CCOC(=O)[C@H](C)C[C@@H](Cc1ccc(-c2ccccc2)cc1)NC(=O)CCC(=O)O [SACUBITRIL] |  |  | 0.5 h | 
CC(C)=CCC1=C(O)c2c(occ(-c3ccc(O[N+](=O)[O-])cc3)c2=O)C2C=CC(C)(C)OC12 (configuration not stated) | 0.5 µmol |  |  | 
